Measurements from BindingDB's records for doi:10.1021/jm0704200.

Legend:
[1] = Agonist activity at human dopamine D2 receptor expressed in HEK293 cells by mitogenesis assay
[2] = Antagonist activity at human dopamine D3 receptor expressed in HEK293 cells by mitogenesis assay
[3] = Antagonist activity at human dopamine D2 receptor expressed in HEK293 cells by mitogenesis assay

EC50 [1]	IC50 [2]	IC50 [3]	SMILES
150 nM	14.3 nM	672 nM	O=C(NC[C@H]1C[C@@H]1CN1CCN(c2cccc(Cl)c2Cl)CC1)c1ccc(-c2ccccn2)cc1 [N-(2-(4-(2,3-dichlorophenyl)piperazin-1-ylmethyl)-trans-cyclopropylmethyl)-4-pyridin-2-ylbenzamide]
–	2.9 nM	–	COc1ccccc1N1CCN(CCCCNC(=O)c2ccc(-c3ccccn3)cc2)CC1 [N-(4-(4-(2-methoxyphenyl)piperazin-1-yl)butyl)-4-pyridin-2-ylbenzamide]
–	2.2 nM	–	COc1ccccc1N1CCN(CCCCNC(=O)c2ccc3c(c2)Cc2ccccc2-3)CC1 [N-(4-(4-(2-methoxyphenyl)piperazin-1-yl)butyl)-9H-fluorene-2-carboxamide]
92 nM	–	–	O=C(NCCCCN1CCN(c2cccc(Cl)c2Cl)CC1)c1ccc(-c2ccccn2)cc1 [N-{4-[4-(2,3-Dichloro-phenyl)-piperazin-1-yl]-butyl}-4-pyridin-2-yl-benzamide]
